Measured values published in ChEMBL document CHEMBL1131737, “An efficient stereoselective synthesis of [3S(1S,9S)]-3-[[[9-(benzoylamino) octahydro-6,10-dioxo-6H-pyridazino-(1,2-a)(1,2)-diazepin-1-yl]-carbonyl ]amino]-4-oxobutanoic acid, an interleukin converting enzyme (ICE) inhibitor” (Bioorg Med Chem Lett, 1999).
Active and inactive are the calls of the source. No cut-off for these calls is given here.

Molecular target: T1, Caspase-1 (Homo sapiens) (UniProt P29466)
T1 sequence (whole entry): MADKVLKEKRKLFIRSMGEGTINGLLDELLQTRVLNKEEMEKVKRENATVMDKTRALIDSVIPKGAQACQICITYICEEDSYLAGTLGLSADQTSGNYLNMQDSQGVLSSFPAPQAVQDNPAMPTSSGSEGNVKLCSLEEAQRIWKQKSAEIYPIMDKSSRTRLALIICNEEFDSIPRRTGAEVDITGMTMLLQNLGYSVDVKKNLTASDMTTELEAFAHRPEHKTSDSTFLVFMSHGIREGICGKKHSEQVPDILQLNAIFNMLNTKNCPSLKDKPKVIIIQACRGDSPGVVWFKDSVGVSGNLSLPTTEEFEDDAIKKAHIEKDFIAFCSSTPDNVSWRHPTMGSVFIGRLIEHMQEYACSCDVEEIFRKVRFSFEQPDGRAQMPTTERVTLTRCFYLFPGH
Test: Inhibitory activity against IL-1 beta converting enzyme; Active

Activity: Active
SMILES: O=C[C@H](CC(=O)O)NC(=O)[C@@H]1CCCN2C(=O)CC[C@H](NC(=O)c3ccccc3)C(=O)N12
